# Source: patent US8399438B2, “2α-methyl-19-nor-1α-hydroxy-homopregnacalciferol and its uses” (Wisconsin Alumni Research Foundation, priority 2004, dated 2013)
# Columns and labels:
# [1] = molecular target: T1, full-length recombinant rat vitamin D receptor (Rattus norvegicus, UniProt P13053); assay: Vitamin D receptor binding, competition with [3H]-1,25(OH)2D3; details: FIG. 1
# T1 construct: Full-length recombinant rat receptor was expressed in E. coli; histidine tag (C); made in house; host or cells: E. coli BL21 (DE3) Codon Plus RIL
# T1 sequence (P13053 1-423): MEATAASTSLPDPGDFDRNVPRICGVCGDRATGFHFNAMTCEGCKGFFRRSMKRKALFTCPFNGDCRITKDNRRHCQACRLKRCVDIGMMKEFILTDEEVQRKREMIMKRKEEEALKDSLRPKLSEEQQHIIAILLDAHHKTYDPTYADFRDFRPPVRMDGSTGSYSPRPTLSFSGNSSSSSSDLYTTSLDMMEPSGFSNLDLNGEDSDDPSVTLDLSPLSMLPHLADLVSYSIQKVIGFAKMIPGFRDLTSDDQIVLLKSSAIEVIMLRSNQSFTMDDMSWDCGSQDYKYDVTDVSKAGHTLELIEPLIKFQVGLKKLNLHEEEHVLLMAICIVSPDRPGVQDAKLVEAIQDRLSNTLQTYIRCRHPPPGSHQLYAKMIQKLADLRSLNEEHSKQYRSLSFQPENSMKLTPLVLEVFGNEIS
# Experimental: Full-length recombinant rat receptor was expressed in E. coli BL21 (DE3) Codon Plus RIL cells and purified to homogeneity using two different column chromatography systems. The first system was a nickel affinity resin that utilizes the C-terminal histidine tag on this protein. The protein that was eluted from this resin was further purified using ion exchange chromatography (S-Sepharose Fast Flow). Aliquots of the purified protein were quick frozen in liquid nitrogen and stored at −80° C. until use. For use in binding assays, the protein was diluted in TEDK50 (50 mM Tris, 1.5 mM EDTA, pH7.4, 5 mM DTT, 150 mM KCl) with 0.1% Chaps detergent. The receptor protein and ligand concentration were optimized such that no more than 20% of the added radiolabeled ligand was bound to the receptor.
# Radiolabeled and unlabeled ligands were added to 100 mcl of the diluted protein at a final ethanol concentration of ≦10%, mixed and incubated overnight on ice to reach binding equilibrium. The following day, 100 mcl of hydroxylapatite slurry (50%) was added to each tube and mixed at 10-minute intervals for 30 minutes. The hydroxylapaptite was collected by centrifugation and then washed three times with Tris-EDTA buffer (50 mM Tris, 1.5 mM EDTA, pH 7.4) containing 0.5% Titron X-100. […] Total binding was determined from the tubes containing only radiolabeled ligand.
# [2] = test system: Human promyelocytic leukemia (HL60) cells; assay: HL-60 differentiation (nitro blue tetrazolium reduction); format: cell-based; details: FIG. 2; for EC50: HL60 cells, 4 days, NBT reduction
# Experimental: The study drugs were dissolved in ethanol and the concentrations determined using UV spectrophotometry. Serial dilutions were prepared so that a range of drug concentrations could be tested without changing the final concentration of ethanol (≦0.2%) present in the cell cultures.
# Human promyelocytic leukemia (HL60) cells were grown in RPMI-1640 medium containing 10% fetal bovine serum. The cells were incubated at 37° C. in the presence of 5% CO2.
# HL60 cells were plated at 1.2×10^5 cells/ml. Eighteen hours after plating, cells in duplicate were treated with drug. Four days later, the cells were harvested and a nitro blue tetrazolium reduction assay was performed (Collins et al., 1979; J. Exp. Med. 149:969-974). The percentage of differentiated cells was determined by counting a total of 200 cells and recording the number that contained intracellular black-blue formazan deposits. Verification of differentiation to monocytic cells was determined by measuring phagocytic activity (data not shown).
# [3] = test system: 24-hydroxylase (24Ohase) gene promoter in ROS 17/2.8 (bone) cells; assay: In vitro transcription assay (24-hydroxylase promoter luciferase reporter); format: cell-based; details: ROS 17/2.8 cells, 16 h, FIG. 3, read-out: EC50, transcriptional activity in bone cells
# Experimental: Transcription activity was measured in ROS 17/2.8 (bone) cells that were stably transfected with a 24-hydroxylase (24Ohase) gene promoter upstream of a luciferase reporter gene (Arbour et al., 1998). Cells were given a range of doses. Sixteen hours after dosing the cells were harvested and luciferase activities were measured using a luminometer.
# RLU=relative luciferase units.
# Sprague-Dawley rats [4] = assay: Bone calcium mobilization (serum calcium) in vitamin D-deficient rats; format: in vivo, rat; details: for bone calcium mobilization (serum calcium): rats on 0.02% Ca diet
# Experimental: (§1) Male, weanling Sprague-Dawley rats were placed on Diet 11 (0.47% Ca) diet+AEK for one week followed by Diet 11 (0.02% Ca)+AEK for 3 weeks. The rats were then switched to a diet containing 0.47% Ca for one week followed by two weeks on a diet containing 0.02% Ca. Dose administration began during the last week on 0.02% calcium diet. Four consecutive ip doses were given approximately 24 hours apart. Twenty-four hours after the last dose, blood was collected from the severed neck and the concentration of serum calcium determined as a measure of bone calcium mobilization. The first 10 cm of the intestine was also collected for intestinal calcium transport analysis using the everted gut sac method.
# Sprague-Dawley rats [5] = assay: Intestinal calcium transport (everted gut sac method) in vitamin D-deficient rats; format: in vivo, rat; details: for intestinal calcium transport: everted gut sac
# Experimental: as §1
# Sprague-Dawley rats [6] = assay: PTH suppression (bioactive serum PTH, ELISA); format: in vivo, rat
# Experimental: Adult, female Sprague-Dawley rats were obtained from Harlan (Madison, Wis.). Upon receipt, the animals were identified by individual tail marks. Animals were housed in suspended, stainless steel, wire-bottom cages. Each cage contained one animal. The animal rooms were maintained at a temperature of 68 to 72° F. and a relative humidity of 25 to 75%. The holding rooms were set to provide 12 hours of light per day. Water and a purified rodent diet (Suda et al., Purified Rodent Diet-Diet 11) containing […] 0.3% phosphorus and fat soluble vitamins A, D, E and K were provided ad libitum. Treatment Groups Animals were randomly assigned to treatment groups (5 animals/group). All doses were administered intraperitoneally in 100 microliters of propylene glycol. Four to seven consecutive doses were given approximately 24 hours apart. Dosing was initiated after the animals had been allowed to acclimate for at least one week. Dose Preparation Control Material Negative Control Material […] The solution was mixed and then stored at 2 to 8° C. The analogs were prepared by first determining the concentration of an ethanol stock solution using UV spectrophotometry (extinction coefficient=42,000; λmax=252 nm). The analog solutions were then volumetrically added to propylene glycol so that there was less than 5% ethanol in the final solution. The solution was mixed and stored at 2 to 8° C. […] Serum PTH Levels. Twenty-four hours after the final dose, blood was collected from the tail artery and the concentration of bioactive serum PTH was measured using the rat BioActive Intact PTH ELISA Kit from Immutopics, Inc. (San Clemente, Calif.). Serum Calcium Analysis Twenty-four hours after the final dose, approximately 1 ml of blood was collected from the tail artery of each experimental animal. The blood was allowed to coagulate at room temperature and then centrifuged at 3000×g for 15 minutes. The serum was transferred to a polypropylene tube and stored frozen at −20° C. The level of calcium was determined by diluting the serum into 0.1% lanthum chloride and measuring the absorbance on an atomic absorption spectrophotometer (Perkin Elmer Model 3110, Shelton, Conn.).
smiles,measurement,setting,value
"CC(C)C1CCC2C(=CC=C3CC(O)C(C)C(O)C3)CCCC21C (stereo not drawn) [2α-methylP, 2α-methyl-19-nor-1α-hydroxy-homopregnacalciferol]","VDR binding compared to 1,25-(OH)2D3 (in words)",[1],bound equally well
same,Ki,[1]; full-length recombinant rat VDR,0.94 nM
same,"HL-60 cell differentiation potency compared to 1,25(OH)2D3 (in words)",[2],"almost as potent as 1,25(OH)2D3"
same,EC50,"[2]; Homo sapiens, HL-60, 96 h",38 nM
same,EC50,[3],3.3 nM
same,bone calcium mobilization (serum calcium),"Sprague-Dawley rats [4]; 87 pmol/day ip, 4 consecutive days",did not result in mobilization of bone calcium
same,bone calcium mobilization (serum calcium),"Sprague-Dawley rats [4]; 260 pmol/day ip, 4 consecutive days",without any substantial effect
same,bone calcium mobilization (serum calcium),"Sprague-Dawley rats [4]; 780 pmol/day ip, 4 consecutive days",without any substantial effect
same,bone calcium mobilization (serum calcium),"Sprague-Dawley rats [4]; 2340 pmol/day ip, 4 consecutive days",without any substantial effect
same,"bone calcium mobilization activity compared to 1,25(OH)2D3 (in words)","Sprague-Dawley rats [4]; overall, FIG. 4",very little bone calcium mobilization activity
same,intestinal calcium transport,Sprague-Dawley rats [5]; 87 pmol/day ip,does not promote intestinal calcium transport
same,intestinal calcium transport,Sprague-Dawley rats [5]; 260 pmol/day ip,does not promote intestinal calcium transport
same,intestinal calcium transport,Sprague-Dawley rats [5]; 780 pmol/day ip,does not promote intestinal calcium transport
same,intestinal calcium transport,Sprague-Dawley rats [5]; 2340 pmol/day ip,does not promote intestinal calcium transport
same,"intestinal calcium transport activity compared to 1,25(OH)2D3 (in words)","Sprague-Dawley rats [5]; overall, FIG. 5",very little activity
same,PTH suppression,"Sprague-Dawley rats [6]; 500 pmol/day ip, 7 consecutive days",about 20%
same,PTH suppression,"Sprague-Dawley rats [6]; 1500 pmol/day ip, 7 consecutive days",about 20%
same,PTH suppression,"Sprague-Dawley rats [6]; 4500 pmol/day ip, 7 consecutive days",about 60%
same,"PTH suppression compared to 1,25(OH)2D3 (in words)",Sprague-Dawley rats [6]; FIG. 6,"not as potently as 1,25(OH)2D3"
"C=C1/C(=C\C=C2/CCC[C@]3(C)[C@@H]([C@H](C)CCCC(C)(C)O)CC[C@@H]23)C[C@@H](O)C[C@@H]1O [1,25(OH)2D3, 1α,25-dihydroxyvitamin D3, reference compound]",EC50,[2],3.6 nM
same,EC50,[3],0.29 nM
same,bone calcium mobilization (serum calcium),Sprague-Dawley rats [4]; all dosages tested,increased serum calcium levels
same,intestinal calcium transport,Sprague-Dawley rats [5]; 260 pmol/day ip,promotes a significant increase
same,PTH suppression,"Sprague-Dawley rats [6]; 100 pmol/day ip, 4 consecutive days",100%
